Measured values from paper PMC3925085, “Subditine, a New Monoterpenoid Indole Alkaloid from Bark of Nauclea subdita (Korth.) Steud. Induces Apoptosis in Human Prostate Cancer Cells” (PLoS ONE, 2014).

What was measured:
Type in all cases: cell-based, human
[1] = tested on: glutathione reductase (GR) gene expression in PC-3 cells; experiment: Oxidative stress and antioxidant defense qPCR-array, PC-3; settings: PC-3, 12.5 µM, 18 h, relative to control cells
Method: LNCaP and PC-3 cells were treated with subditine (1) (12.5 µM) for 18 h. RNA was extracted from PC-3 or LNCaP cells using RNeasy plus mini kit (Qiagen). 1 µg of RNA was reverse transcribed into cDNA using the RT2 first strand kit (SA Biosciences, Qiagen).cDNA was mixed with RT2 Real Time™ SYBR Green/fluorescein PCR master-mix and loaded into each 96 wells of the Human Oxidative Stress and Antioxidant Defense qPCR array according to the manufacturer’s protocol (SA Biosciences, Qiagen). Briefly, a total volume of 25 µl of PCR mixture, which included 12.5 µl of mastermix, 11.5 µl of double distilled water, and 1 µl of cDNA was loaded into each of the 96wells. qPCR were done using StepOne PLUS real-time PCR machine (Applied Biosystems). PCR amplification was conducted at 95°C for 10 min, followed by 40 cycles of 95°C for 15 sec and 60°C for 1 min. The mRNA expression for each gene was normalized using the average expression of five housekeeping genes:
β-actin (ACTB), β-2-microglobulin (β2M), hypoxanthine phosphoribosyltransferase 1 (HPRT1), ribosomal protein L13a (RPL13A) and glyceraldehyde-3-phosphate dehydrogenase (GAPDH). The ΔΔCt method was used for data analysis. Fold changes were calculated for each gene as the difference in gene expression between subditine (1) or non-treated control using the RT Profiler qPCR-array data analysis software.

[2] = tested on: caspase-3/7 in LNCaP cells; experiment: Caspase-Glo 3/7 bioluminescent assay, LNCaP
Method: (§1) A time-dependent study of caspase-3/7, -8, and -9 activities was performed in triplicates using assay kits Caspase-Glo 3/7, 8, and 9 (Promega Corp.,Madison,WI, USA) on white 96-well microplate as described previously. A total of 10,000 cells per well was seeded and treated with […] of subditine (1) for 6, 12, 18, 24, and 30 hours. Then, 100 µL of the caspase-Glo reagent was added, incubated at room temperature for 30 minutes and measured using Tecan Infinite 200 Pro (Tecan, Mannedorf, Swizerland) microplate reader.

[3] = tested on: caspase-3/7 in PC-3 cells; experiment: Caspase-Glo 3/7 bioluminescent assay, PC-3
Method: as §1

caspase-8 in LNCaP cells = experiment: Caspase-Glo 8 bioluminescent assay, LNCaP; settings: 12.5 µM, throughout 30 hours
Method: as §1

[4] = tested on: intracellular ROS in LNCaP cells; experiment: ROS assay (DHE dye, Cellomics HCS), LNCaP; settings: LNCaP, 12.5, 25, 50 µM, 24 h
Method: The production of intracellular ROS was detected as described previously. The DHE dye reagent is converted to fluorescent ethidium and intercalates into DNA in response intracellular ROS. Briefly, 10 mM DHE stock solution (in methanol) was diluted 500-fold in HBSS without serum or other additives to yield a 20 µM working solution. After exposure to subditine (1), the cells in the 96-well black plate was washed twice with HBSS and then incubated in 100 µL working solution of DHE at 37°C for 30 minutes. Fluorescence of DCF in each cell was captured, extracted and analyzed with ArrayScan II Data Acquisition and Data Viewer version 3.0 (Cellomics).

[5] = tested on: Bcl-2 expression in PC-3 cells; experiment: Western blotting, Bcl-2 in PC-3; settings: 24 h
Method: To determine protein expression, 1×10^6 cells/mL were seeded and treated with subditine (1) or paclitaxel for 24 h. Whole cell extracts were prepared as previously described. Briefly, cells were collected, lysed and resolved on 10% SDS-polyacrylamide gels. After electrophoresis, the proteins were transferred to PVDF membranes (Millipore), blocked with 5% nonfat dry milk in PBS-T (0.05% Tween 20) for 1 hour at room temperature. Membranes were probed with primary rabbit anti-Bcl-2, Bcl-xL or p53 antibodies followed by horseradish peroxidase (HRP)-conjugated secondary anti-rabbit antibody (Cell Signaling Technology Inc., CA, USA). Membranes were stripped and reprobed with mouse anti-β-actin antibody as loading control (Santa Cruz Biotechnology Inc.). Protein-antibody complexes were detected with Amersham ECL prime Western blotting detection reagent (GE Healthcare, USA).

In the case of `Cc1ncc2c(=O)n3c(cc2c1C=O)-c1[nH]c2ccccc2c1CC3` [Subditine, subditine], the “glutathione reductase (GR) gene expression fold change” value [1] is reported as over 20 fold, the caspase-3/7 activity ([2]; after 12 and 24 hours exposure, 12.25 µM) is reported as “significant increase” and the “time of peak caspase-3/7 activity” value ([2]; time points 6-30 hours) is reported as 18 h. The caspase-3/7 activity ([3]; PC-3, after 12 and 24 hours exposure, 12.25 µM) was “significant increase”, the “time of peak caspase-3/7 activity” value ([3]; PC-3, time points 6-30 hours) was 18 h and the “caspase 8 activity” value (caspase-8 in LNCaP cells) was “No significant fold-change”. For the same compound, the “ROS production (DCF/DHE fluorescence level)” value [4] was “significantly increased in a dose-dependent manner”, the Bcl-2 protein expression ([5]; PC-3, 12.5 µM, compared to control) was “no significant change” and the Bcl-2 protein expression ([5]; PC-3, 25 and 50 µM) was “drastically down-regulated”.
